The values below come from patent US4000261A, “5-Epi-4,6-di-O-(aminoglycosyl)-2-deoxystreptamines, methods for their manufacture and intermediates useful therein, methods for their use as antibacterial agents and compositions useful therefor” (priority 1975, dated 1976).

Values after ≈ are worked out from the molar mass of the structure shown. Read-outs that look alike come from different tables or passages of the source.

Holding throughout (format): cell-based
Assay [1] concerns gram-positive and gram-negative bacteria. Nature of the assay: antibacterial spectrum and relative activity in vitro. The note with it: for antibacterial spectrum in vitro: compared with gentamicin C1, C1a and C2.
The subject of another assay is Pseudomonas aeruginosa. Nature of the assay: in vitro minimal inhibitory concentration (MIC), standard tube dilution method. An excerpt:
(§1) In Table 1, set forth below is shown the in vitro minimal inhibitory concentration (MIC) of gentamicin C2a against representative gram-positive and gram-negative bacteria. The results are derived using the standard tube dilution method in Mueller-Hinton broth.
(§2) In Table 2, set forth below is shown the in vitro minimal inhibitory concentration (MIC) of gentamicin C2b against representative gram-positive and gram-negative bacteria. The results are derived using the standard tube dilution method in Mueller-Hinton broth.

A further assay relates to Staphylococcus aureus. The assay is described as above. The note with it: Mueller-Hinton broth.
Description: as §1, §2

Another assay has as its system Salmonella typhi. B. The description is as above. Particulars: Salmonella enterica.
Description: as §1, §2

The test system of the next assay is Bacillus subtilis 663. Described as above. Particulars: strain 663, Mueller-Hinton broth.
Description: as §1, §2

Another assay has as its system Klebsiella pneumoniae. The description is as above.
Description: as §1, §2

The subject of a further assay is Escherichia coli. The description is as above.
Description: as §1, §2

The subject of assay [2] is gram positive bacteria (e.g. Staphylococcus aureus) and gram negative bacteria (e.g. Escherichia coli and Pseudomonas aeruginosa). The assay can be described thus: antibacterial activity determined by standard dilution tests. Particulars: including bacteria resistant to the parent compounds.
Setting [3] is: strain 20, Mueller-Hinton broth.
Setting [4] is: strain 762, Mueller-Hinton broth.
Where [5] appears, read: strain 3223, Mueller-Hinton broth.
Where [6] appears, read: strain St 138, gentamicin resistant, Mueller-Hinton broth.
The mark [7] stands for this setting: strain Travers, gentamicin resistant, Mueller-Hinton broth.
[8] abbreviates: strain 17, Mueller-Hinton broth, read-out: MIC.
[9] abbreviates: ATCC10536, strain ATCC 10536, Mueller-Hinton broth.
The mark [10] stands for this setting: strain JR66, gentamicin resistant, Mueller-Hinton broth.
Setting [11] is: strain LA 290/R55, gentamicin resistant, Mueller-Hinton broth.

Take `CCN[C@@H]1C[C@H](N)[C@@H](O[C@H]2OC(CN)=CC[C@H]2N)[C@@H](O)[C@H]1O[C@H]1OC[C@](C)(O)[C@H](NC)[C@H]1O` [1-N-ethyl-5-episisomicin]: in assay [1] (general statement, some compared with parent antibiotics), the “antibacterial activity / spectrum” value is “enhanced antibacterial activity”.

The MIC is the least concentration at which growth counts as inhibited. With `CN[C@@H]1[C@@H](O)[C@@H](O[C@@H]2[C@@H](O)[C@H](O[C@H]3O[C@H]([C@H](C)N)CC[C@H]3N)[C@@H](N)C[C@H]2N)OC[C@]1(C)O` [gentamicin C2a], the MIC was 3 µg/mL (≈ 6.47 µM) in the assay with Pseudomonas aeruginosa (setting [3]); 0.8 µg/mL (≈ 1.73 µM) against Pseudomonas aeruginosa (setting [4]); 0.3 µg/mL (≈ 0.647 µM) with Pseudomonas aeruginosa (setting [5]); more than 25 µg/mL in the assay with Pseudomonas aeruginosa (setting [6]); more than 25 µg/mL against Pseudomonas aeruginosa (setting [7]); 0.3 µg/mL (≈ 0.647 µM) in the assay on Staphylococcus aureus (Staphylococcus aureus, strain 6538P, read-out: MIC). In addition, the MIC with Staphylococcus aureus (strain 59N) was 0.3 µg/mL (≈ 0.647 µM); in the assay on Staphylococcus aureus (strain Ziegler), 0.3 µg/mL (≈ 0.647 µM); with Salmonella typhi. B. it was 0.3 µg/mL (≈ 0.647 µM); in the assay on Bacillus subtilis 663 it was 0.1 µg/mL (≈ 0.216 µM); in the assay on Klebsiella pneumoniae, 17.5 µg/mL (≈ 37.8 µM); in the assay with Klebsiella pneumoniae (setting [8]) it was 0.8 µg/mL (≈ 1.73 µM). Besides, the MIC in the assay on Escherichia coli (setting [9]) came to 0.3 µg/mL (≈ 0.647 µM); against Escherichia coli (setting [10]) it was 7.5 µg/mL (≈ 16.2 µM); in the assay on Escherichia coli (setting [11]), 17.5 µg/mL (≈ 37.8 µM). Also, the “activity relative to the gentamicin C complex” value in assay [1] (as the free base, % of the activity of the gentamicin C complex) is given as “about 74%”. In assay [1], the “antibacterial spectrum in vitro” value was “substantially the same antibacterial spectrum in vitro as do gentamicin C1, C1a and C2”.

Take `CN[C@@H]1[C@@H](O)[C@@H](O[C@@H]2[C@H](O)[C@H](O[C@H]3OC(CN)=CC[C@H]3N)[C@@H](N)C[C@H]2N)OC[C@@H]1O` [5-epi-Antibiotic 66-40D]: the “antibacterial activity in standard dilution tests” value in assay [2] is “active against gram positive bacteria (e.g. Staphylococcus aureus) and gram negative bacteria (e.g. Escherichia coli and Pseudomonas aeruginosa)”.

With `CNC[C@@H]1CC[C@@H](N)[C@@H](O[C@H]2[C@H](O)[C@@H](O[C@H]3OC[C@](C)(O)[C@H](NC)[C@H]3O)[C@H](N)C[C@@H]2N)O1` [gentamicin C2b], the MIC with Pseudomonas aeruginosa (setting [3]) is 0.3 µg/mL (≈ 0.647 µM); in the assay on Pseudomonas aeruginosa (setting [4]), 0.3 µg/mL (≈ 0.647 µM); with Pseudomonas aeruginosa (setting [5]) it was 0.075 µg/mL (≈ 0.162 µM); in the assay with Pseudomonas aeruginosa (setting [6]), 17.5 µg/mL (≈ 37.8 µM); in the assay on Pseudomonas aeruginosa (setting [7]), more than 25 µg/mL; with Staphylococcus aureus (Staphylococcus aureus, strain wood, read-out: MIC), 0.075 µg/mL (≈ 0.162 µM). In addition, the MIC is 0.075 µg/mL (≈ 0.162 µM) with Staphylococcus aureus (strain 59N); 0.075 µg/mL (≈ 0.162 µM) in the assay on Staphylococcus aureus (strain Ziegler); 0.3 µg/mL (≈ 0.647 µM) in the assay with Salmonella typhi. B.; less than 0.05 µg/mL in the assay with Bacillus subtilis 663; 0.075 µg/mL (≈ 0.162 µM) in the assay with Klebsiella pneumoniae (setting [8]); 17.5 µg/mL (≈ 37.8 µM) in the assay on Klebsiella pneumoniae (strain 3694, gentamicin resistant, Mueller-Hinton broth, read-out: MIC). Besides, the figures for the MIC against Escherichia coli (setting [9]), in the assay with Escherichia coli (setting [10]) and against Escherichia coli (setting [11]) were 0.075 µg/mL (≈ 0.162 µM), 7.5 µg/mL (≈ 16.2 µM) and more than 25 µg/mL, respectively. The “antibacterial spectrum in vitro” value in assay [1] was “substantially the same antibacterial spectrum in vitro as do gentamicin C1, C1a and C2”.
